≈ marks a conversion by molar mass, not a printed value.
Tests used:
[1] = test system: Mycobacterium tuberculosis; assay: Antituberculosis activity against Mycobacterium tuberculosis H37Rv under aerobic conditions by microplate alamar blue assay; format: functional
[2] = test system: Mycobacterium tuberculosis; assay: Antituberculosis activity against Mycobacterium tuberculosis H37Rv under anaerobic conditions by fluorescence based low-oxygen-recovery assay; format: functional

Structure (SMILES) | MIC [1] [µM] | MIC [2] [µM]
O=[N+]([O-])c1cn2c(n1)OC[C@@H](OCC#Cc1ccc(-c3ccc(C(F)(F)F)cc3)cc1)C2 | 0.22 (≈ 0.0975 µg/mL) | 0.86 (≈ 0.381 µg/mL)
O=[N+]([O-])c1cn2c(n1)OC[C@@H](OCCCc1ccc(-c3ccc(F)cc3)cc1)C2 | 0.045 (≈ 0.0179 µg/mL) | 0.92 (≈ 0.366 µg/mL)
O=[N+]([O-])c1cn2c(n1)OC[C@@H](OCCCc1ccc(-c3ccc(C(F)(F)F)nc3)cc1)C2 | 0.07 (≈ 0.0314 µg/mL) | 1.9 (≈ 0.852 µg/mL)
O=[N+]([O-])c1cn2c(n1)OC[C@@H](OCCCc1ccc(-c3ccc(C(F)(F)F)cn3)cc1)C2 | 0.055 (≈ 0.0247 µg/mL) | 3 (≈ 1.35 µg/mL)
O=[N+]([O-])c1cn2c(n1)OC[C@@H](OCCOc1ccc(-c3ccc(F)cc3)cc1)C2 | 0.04 (≈ 0.016 µg/mL) | 3.4 (≈ 1.36 µg/mL)
O=[N+]([O-])c1cn2c(n1)OC[C@@H](OCCOc1ccc(-c3ccc(C(F)(F)F)cc3)cc1)C2 | 0.04 (≈ 0.018 µg/mL) | 104 (≈ 46.7 µg/mL)
O=[N+]([O-])c1cn2c(n1)OC[C@@H](OCCOc1ccc(-c3ccc(C(F)(F)F)nc3)cc1)C2 | 0.025 (≈ 0.0113 µg/mL) | 4.1 (≈ 1.85 µg/mL)
O=[N+]([O-])c1cn2c(n1)OC[C@@H](OCCOc1ccc(-c3ccc(F)cc3)cn1)C2 | 0.02 (≈ 0.00801 µg/mL) | 2.4 (≈ 0.961 µg/mL)
O=[N+]([O-])c1cn2c(n1)OC[C@@H](OCCOc1ccc(-c3ccc(C(F)(F)F)cc3)cn1)C2 | 0.02 (≈ 0.00901 µg/mL) | 3 (≈ 1.35 µg/mL)
O=[N+]([O-])c1cn2c(n1)OC[C@@H](OCCOc1ccc(-c3ccc(C(F)(F)F)nc3)cn1)C2 | 0.22 (≈ 0.0993 µg/mL) | 10 (≈ 4.51 µg/mL)
O=[N+]([O-])c1cn2c(n1)OC[C@@H](OCCOc1ncc(-c3ccc(F)cc3)cn1)C2 | 0.13 (≈ 0.0522 µg/mL) | 13 (≈ 5.22 µg/mL)
O=[N+]([O-])c1cn2c(n1)OC[C@@H](OCCOc1ncc(-c3ccc(C(F)(F)F)cc3)cn1)C2 | 0.12 (≈ 0.0542 µg/mL) | 5.4 (≈ 2.44 µg/mL)
O=[N+]([O-])c1cn2c(n1)OC[C@@H](OCCOc1ncc(-c3ccc(C(F)(F)F)nc3)cn1)C2 | 0.63 (≈ 0.285 µg/mL) | 56 (≈ 25.3 µg/mL)
O=[N+]([O-])c1cn2c(n1)OC[C@@H](OC/C=C/c1ccc(-c3ccc(F)cc3)cc1)C2 | 0.09 (≈ 0.0356 µg/mL) | 3.1 (≈ 1.23 µg/mL)
O=[N+]([O-])c1cn2c(n1)OC[C@@H](OC/C=C/c1ccc(-c3ccc(C(F)(F)F)cc3)cc1)C2 | 0.045 (≈ 0.02 µg/mL) | 43 (≈ 19.2 µg/mL)
O=[N+]([O-])c1cn2c(n1)OC[C@@H](OC/C=C/c1ccc(-c3ccc(C(F)(F)F)nc3)cc1)C2 | 0.02 (≈ 0.00893 µg/mL) | 15 (≈ 6.7 µg/mL)
O=[N+]([O-])c1cn2c(n1)OC[C@@H](OC/C=C/c1ccc(-c3ccc(OC(F)F)cc3)cc1)C2 | 0.08 (≈ 0.0355 µg/mL) | 4.3 (≈ 1.91 µg/mL)
O=[N+]([O-])c1cn2c(n1)OC[C@@H](OCC#Cc1ccc(-c3ccc(F)cc3)cc1)C2 | 0.035 (≈ 0.0138 µg/mL) | 2.7 (≈ 1.06 µg/mL)
O=[N+]([O-])c1cn2c(n1)OC[C@@H](OCC#Cc1ccc(-c3ccc(OC(F)F)cc3)cc1)C2 | 0.14 (≈ 0.0618 µg/mL) | 1.8 (≈ 0.795 µg/mL)
O=[N+]([O-])c1cn2c(n1)OC[C@@H](OCC#Cc1cccc(-c3ccc(F)cc3)c1)C2 | 0.04 (≈ 0.0157 µg/mL) | 0.88 (≈ 0.346 µg/mL)

Structure (SMILES) | MIC [1] [µM] | MIC [2] [µM]
O=[N+]([O-])c1cn2c(n1)OC[C@@H](OCC#Cc1cccc(-c3ccc(C(F)(F)F)cc3)c1)C2 | 0.27 (≈ 0.12 µg/mL) | 1.3 (≈ 0.576 µg/mL)
O=[N+]([O-])c1cn2c(n1)OC[C@@H](OCC#Cc1cccc(-c3ccc(C(F)(F)F)nc3)c1)C2 | 0.12 (≈ 0.0533 µg/mL) | 0.96 (≈ 0.427 µg/mL)
O=[N+]([O-])c1cn2c(n1)OC[C@@H](OCC#Cc1cccc(-c3ccc(OC(F)F)cc3)c1)C2 | 0.09 (≈ 0.0397 µg/mL) | 1.4 (≈ 0.618 µg/mL)
O=[N+]([O-])c1cn2c(n1)OC[C@@H](OCC#Cc1ccc(-c3ccc(F)cc3)cn1)C2 | 0.05 (≈ 0.0197 µg/mL) | 0.85 (≈ 0.335 µg/mL)
O=[N+]([O-])c1cn2c(n1)OC[C@@H](OCC#Cc1ccc(-c3ccc(C(F)(F)F)cc3)cn1)C2 | 0.02 (≈ 0.00889 µg/mL) | 0.75 (≈ 0.333 µg/mL)
O=[N+]([O-])c1cn2c(n1)OC[C@@H](OCC#Cc1ccc(-c3ccc(C(F)(F)F)nc3)cn1)C2 | 0.44 (≈ 0.196 µg/mL) | 6.6 (≈ 2.94 µg/mL)
O=[N+]([O-])c1cn2c(n1)OC[C@@H](OCC#Cc1ccc(-c3ccc(OC(F)F)cc3)cn1)C2 | 0.025 (≈ 0.0111 µg/mL) | 0.44 (≈ 0.195 µg/mL)
O=[N+]([O-])c1cn2c(n1)OC[C@@H](OCC#Cc1ccc(-c3ccc(F)cc3)nc1)C2 | 0.05 (≈ 0.0197 µg/mL) | 1 (≈ 0.394 µg/mL)
O=[N+]([O-])c1cn2c(n1)OC[C@@H](OCC#Cc1ccc(-c3ccc(C(F)(F)F)cc3)nc1)C2 | 0.07 (≈ 0.0311 µg/mL) | 0.58 (≈ 0.258 µg/mL)
O=[N+]([O-])c1cn2c(n1)OC[C@@H](OCC#Cc1ccc(-c3ccc(C(F)(F)F)nc3)nc1)C2 | 0.12 (≈ 0.0534 µg/mL) | 3.7 (≈ 1.65 µg/mL)
O=[N+]([O-])c1cn2c(n1)OC[C@@H](OCC#Cc1ccc(-c3ccc(OC(F)F)cc3)nc1)C2 | 0.08 (≈ 0.0354 µg/mL) | 0.61 (≈ 0.27 µg/mL)
O=[N+]([O-])c1cn2c(n1)OC[C@@H](OCCCC#Cc1ccc(-c3ccc(F)cc3)cc1)C2 | 0.07 (≈ 0.0295 µg/mL) | 1.6 (≈ 0.674 µg/mL)
O=[N+]([O-])c1cn2c(n1)OC[C@@H](OCCCC#Cc1ccc(-c3ccc(C(F)(F)F)cc3)cc1)C2 | 0.085 (≈ 0.0401 µg/mL) | > 128
O=[N+]([O-])c1cn2c(n1)OC[C@@H](OCCCC#Cc1ccc(-c3ccc(C(F)(F)F)nc3)cc1)C2 | 0.11 (≈ 0.052 µg/mL) | 63 (≈ 29.8 µg/mL)
O=[N+]([O-])c1cn2c(n1)OC[C@@H](OCCCC#Cc1ccc(-c3ccc(OC(F)F)cc3)cc1)C2 | 0.035 (≈ 0.0164 µg/mL) | 39 (≈ 18.3 µg/mL)
O=[N+]([O-])c1cn2c(n1)OC[C@@H](Oc1cc(-c3ccc(C(F)(F)F)nc3)ncn1)C2 | 3 (≈ 1.22 µg/mL) | 62 (≈ 25.3 µg/mL)
O=[N+]([O-])c1cn2c(n1)OC[C@@H](Oc1ccc(-c3ccc(F)cc3)cn1)C2 | 0.37 (≈ 0.132 µg/mL) | 15 (≈ 5.34 µg/mL)
O=[N+]([O-])c1cn2c(n1)OC[C@@H](Oc1ccc(-c3ccc(C(F)(F)F)cc3)cn1)C2 | 0.1 (≈ 0.0406 µg/mL) | 12 (≈ 4.88 µg/mL)
O=[N+]([O-])c1cn2c(n1)OC[C@@H](Oc1ccc(-c3ccc(C(F)(F)F)nc3)cn1)C2 | 0.42 (≈ 0.171 µg/mL) | 14 (≈ 5.7 µg/mL)
O=[N+]([O-])c1cn2c(n1)OC[C@@H](Oc1ccc(-c3ccc(F)cc3)nc1)C2 | 0.5 (≈ 0.178 µg/mL) | 5.6 (≈ 2 µg/mL)

Structure (SMILES) | MIC [1] [µM] | MIC [2] [µM]
O=[N+]([O-])c1cn2c(n1)OC[C@@H](Oc1ccc(-c3ccc(C(F)(F)F)cc3)nc1)C2 | 0.78 (≈ 0.317 µg/mL) | 1.2 (≈ 0.488 µg/mL)
O=[N+]([O-])c1cn2c(n1)OC[C@@H](Oc1ccc(-c3ccc(C(F)(F)F)nc3)nc1)C2 | 0.45 (≈ 0.183 µg/mL) | 17 (≈ 6.92 µg/mL)
O=[N+]([O-])c1cn2c(n1)OC[C@@H](Oc1ncc(-c3ccc(F)cc3)cn1)C2 | 1.6 (≈ 0.572 µg/mL) | 7.4 (≈ 2.64 µg/mL)
O=[N+]([O-])c1cn2c(n1)OC[C@@H](Oc1ncc(-c3ccc(C(F)(F)F)cc3)cn1)C2 | 0.21 (≈ 0.0855 µg/mL) | 3 (≈ 1.22 µg/mL)
O=[N+]([O-])c1cn2c(n1)OC[C@@H](Oc1ncc(-c3ccc(C(F)(F)F)nc3)cn1)C2 | 1.3 (≈ 0.531 µg/mL) | 17 (≈ 6.94 µg/mL)
CC(O[C@@H]1COc2nc([N+](=O)[O-])cn2C1)c1ccc(-c2ccc(F)cc2)cc1 (stereo partly drawn) | 0.22 (≈ 0.0843 µg/mL) | 1.3 (≈ 0.498 µg/mL)
CC(O[C@@H]1COc2nc([N+](=O)[O-])cn2C1)c1ccc(-c2ccc(C(F)(F)F)cc2)cc1 (stereo partly drawn) | 0.18 (≈ 0.078 µg/mL) | 2.2 (≈ 0.953 µg/mL)
CC(O[C@@H]1COc2nc([N+](=O)[O-])cn2C1)c1ccc(-c2ccc(C(F)(F)F)nc2)cc1 (stereo partly drawn) | 0.39 (≈ 0.169 µg/mL) | 4.3 (≈ 1.87 µg/mL)
O=[N+]([O-])c1cn2c(n1)OC[C@@H](Oc1ccc(-c3ccc(F)cc3)cc1)C2 | 0.31 (≈ 0.11 µg/mL) | 1.2 (≈ 0.426 µg/mL)
O=[N+]([O-])c1cn2c(n1)OC[C@@H](Oc1ccc(-c3ccc(C(F)(F)F)cc3)cc1)C2 | 0.39 (≈ 0.158 µg/mL) | > 128
O=[N+]([O-])c1cn2c(n1)OC[C@@H](Oc1ccc(-c3ccc(C(F)(F)F)nc3)cc1)C2 | 0.51 (≈ 0.207 µg/mL) | 4.1 (≈ 1.67 µg/mL)
O=[N+]([O-])c1cn2c(n1)OC[C@@H](Oc1cccc(-c3ccc(C(F)(F)F)cc3)n1)C2 | 0.55 (≈ 0.223 µg/mL) | 35 (≈ 14.2 µg/mL)
O=[N+]([O-])c1cn2c(n1)OC[C@@H](Oc1cccc(-c3ccc(OC(F)F)cc3)n1)C2 | 0.52 (≈ 0.21 µg/mL) | 4.4 (≈ 1.78 µg/mL)
O=[N+]([O-])c1cn2c(n1)OC[C@@H](Oc1ccnc(-c3ccc(F)cc3)c1)C2 | 0.67 (≈ 0.239 µg/mL) | 8.5 (≈ 3.03 µg/mL)
O=[N+]([O-])c1cn2c(n1)OC[C@@H](Oc1ccnc(-c3ccc(C(F)(F)F)cc3)c1)C2 | 0.65 (≈ 0.264 µg/mL) | > 128
O=[N+]([O-])c1cn2c(n1)OC[C@@H](Oc1cc(-c3ccc(C(F)(F)F)cc3)ccn1)C2 | 0.88 (≈ 0.358 µg/mL) | 32 (≈ 13 µg/mL)
O=[N+]([O-])c1cn2c(n1)OC[C@@H](Oc1cc(-c3ccc(C(F)(F)F)nc3)ccn1)C2 | 3 (≈ 1.22 µg/mL) | 27 (≈ 11 µg/mL)
O=[N+]([O-])c1cn2c(n1)OC[C@@H](Oc1cc(-c3ccc(F)cc3)ncn1)C2 | 0.99 (≈ 0.354 µg/mL) | 15 (≈ 5.36 µg/mL)
O=[N+]([O-])c1cn2c(n1)OC[C@@H](Oc1cc(-c3ccc(C(F)(F)F)cc3)ncn1)C2 | 0.8 (≈ 0.326 µg/mL) | 17 (≈ 6.92 µg/mL)
